Experimental data published in PubChem BioAssay AID328 (DTP/NCI, 2004).
Where “and” joins values, the source holds several entries; their conditions need not be identical. Equal values may be shown once. Toxic doses and inconclusive results are not listed.

System: BDF1 mice, P388 leukemia ip, median survival T/C
Experiment: NCI In Vivo Anticancer Drug Screen. Data for tumor model P388 Leukemia (intraperitoneal) in B6D2F1 (BDF1) mice
Conditions: endpoint: median survival time, higher = longer survival
Procedure, shortened: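 In tumour-bearing mice, survival after compound treatment is set against the vehicle group and given as a quotient.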

[1] = dose: 100.0 mg/kg/injection, schedule: Q04DX003 (ip), vehicle: saline with Tween-80
[2] = dose: 200.0 mg/kg/injection, schedule: Q04DX003 (ip), vehicle: saline with Tween-80
[3] = dose: 50.0 mg/kg/injection, schedule: Q01DX009 (ip), vehicle: saline with Tween-80
[4] = dose: 100.0 mg/kg/injection, schedule: Q01DX009 (ip), vehicle: saline with Tween-80
[5] = dose: 200.0 mg/kg/injection, schedule: Q01DX009 (ip), vehicle: saline with Tween-80
[6] = dose: 50.0 mg/kg/injection, schedule: Q01DX009 (ip), vehicle: saline
[7] = dose: 50.0 mg/kg/injection, schedule: Q04DX003 (ip), vehicle: saline with Tween-80
[8] = dose: 100.0 mg/kg/injection, schedule: Q04DX002 (ip), vehicle: saline with Tween-80
[9] = dose: 200.0 mg/kg/injection, schedule: Q04DX002 (ip), vehicle: saline with Tween-80
[10] = dose: 400.0 mg/kg/injection, schedule: Q04DX002 (ip), vehicle: saline with Tween-80
[11] = dose: 100.0 mg/kg/injection, schedule: Q04DX003 (ip), vehicle: saline

O=C1C=CC(=O)N1CCc1ccccc1
T/C (dose: 5.0 mg/kg/injection, schedule: Q01DX009 (ip), vehicle: saline with Tween-80): 100 % of control
T/C (dose: 10.0 mg/kg/injection, schedule: Q01DX009 (ip), vehicle: saline with Tween-80): 92 % of control
T/C (dose: 10.0 mg/kg/injection, schedule: Q04DX003 (ip), vehicle: saline with Tween-80): 108 % of control
T/C (dose: 20.0 mg/kg/injection, schedule: Q01DX009 (ip), vehicle: saline with Tween-80): 92 % of control
T/C (dose: 20.0 mg/kg/injection, schedule: Q04DX003 (ip), vehicle: saline with Tween-80): 108 % of control

CCOC(=O)C(C#N)N=Nc1ccccc1 (stereo not given)
T/C [1]: 90 % of control
T/C [2]: 95 % of control
T/C (dose: 400.0 mg/kg/injection, schedule: Q04DX003 (ip), vehicle: saline with Tween-80): 90 % of control

CCc1ccc2[nH]nc(CCC(=O)O)c(=O)c2c1
T/C [3]: 117 % of control
T/C [4]: 108 % of control
T/C [5]: 92 % of control

Cc1nc2nc(N)nc(N)c2nc1C
T/C [3]: 100 % of control
T/C [4]: 104 % of control
T/C [1]: 95 % of control
T/C [5]: 100 % of control
T/C [2]: 95 % of control

O=C(CNC(=O)c1cccc(C(=O)NCC(=O)Nc2ccc(C3=NCCN3)cc2)c1)Nc1ccc(C2=NCCN2)cc1
T/C (dose: 8.2 mg/kg/injection, schedule: Q01DX009 (ip), vehicle: saline): 117 % of control
T/C (dose: 25.0 mg/kg/injection, schedule: Q01DX009 (ip), vehicle: saline): 169 % of control
T/C [6]: 250 % of control

CC[n+]1cc(-c2ccc(NC(=O)/C=C\c3ccc(C(=O)Nc4ccc(-c5c[n+](CC)c(N)nc5N)cc4)cc3)cc2)c(N)nc1N
T/C (dose: 33.0 mg/kg/injection, schedule: Q04DX003 (ip), vehicle: saline with Tween-80): 195 % of control
T/C [7]: 272 % of control
T/C (dose: 75.0 mg/kg/injection, schedule: Q04DX003 (ip), vehicle: saline with Tween-80): 272 % of control

NCCNc1c[nH]c(=O)[nH]c1=O
T/C [3]: 110 % of control
T/C [4]: 103 % of control
T/C [5]: 103 % of control

Cc1ccc(Cl)cc1O
T/C [3]: 100 % of control
T/C [4]: 96 % of control
T/C (dose: 200.0 mg/kg/injection, schedule: Q04DX003 (ip), vehicle: saline + alcohol): 104 % of control
T/C (dose: 300.0 mg/kg/injection, schedule: Q04DX003 (ip), vehicle: saline + alcohol): 104 % of control
T/C (dose: 450.0 mg/kg/injection, schedule: Q04DX003 (ip), vehicle: saline + alcohol): 91 % of control

CCOP(=S)(N1CC1(C)C)N1CC1(C)C (stereo not given)
T/C (dose: 264.0 mg/kg/injection, schedule: Q04DX003 (ip), vehicle: saline with Tween-80): 229 % of control

COc1ccc(C(O)C2CCCN(C)S2(=O)=O)cc1 (stereo not given)
T/C [8]: 117 % of control
T/C [9]: 112 % of control
T/C [10]: 111 % of control

Cc1cc(N(CCCl)CCCl)ccc1C=Nc1cccnc1
T/C (dose: 50.0 mg/kg/injection, schedule: Q01DX009 (ip), vehicle: Klucel (hydroxypropylcellulose) (HPC)): 100 % of control and 113 % of control
T/C (dose: 50.0 mg/kg/injection, schedule: Q04DX003 (ip), vehicle: Klucel (hydroxypropylcellulose) (HPC)): 100 % of control
T/C (dose: 100.0 mg/kg/injection, schedule: Q01DX009 (ip), vehicle: Klucel (hydroxypropylcellulose) (HPC)): 152 % of control
T/C (dose: 100.0 mg/kg/injection, schedule: Q04DX003 (ip), vehicle: Klucel (hydroxypropylcellulose) (HPC)): 95 % of control
T/C (dose: 200.0 mg/kg/injection, schedule: Q01DX009 (ip), vehicle: Klucel (hydroxypropylcellulose) (HPC)): 150 % of control and 156 % of control
T/C (dose: 200.0 mg/kg/injection, schedule: Q04DX003 (ip), vehicle: Klucel (hydroxypropylcellulose) (HPC)): 120 % of control
T/C (dose: 400.0 mg/kg/injection, schedule: Q01DX009 (ip), vehicle: Klucel (hydroxypropylcellulose) (HPC)): 169 % of control and 190 % of control
T/C (dose: 400.0 mg/kg/injection, schedule: Q04DX003 (ip), vehicle: Klucel (hydroxypropylcellulose) (HPC)): 120 % of control

CN(c1ccccc1)c1c2c(oc(=O)c1Cl)-c1ccccc1SC2
T/C (dose: 1.56 mg/kg/injection, schedule: Q01DX009 (ip), vehicle: saline with Tween-80): 101 % of control
T/C (dose: 3.13 mg/kg/injection, schedule: Q01DX009 (ip), vehicle: saline with Tween-80): 97 % of control
T/C (dose: 6.25 mg/kg/injection, schedule: Q01DX009 (ip), vehicle: saline with Tween-80): 91 % of control

CC(=O)Oc1ccc2c(c1)CCC1C2CCC2(C)C1CCC21CO1 (stereo not given)
T/C [3]: 90 % of control
T/C [4]: 97 % of control
T/C [5]: 98 % of control

CC[n+]1ccc(Nc2ccc(/C=C/c3ccc4cc(Nc5cc[n+](CC)cc5)ccc4[n+]3CC)cc2)cc1
T/C (dose: 2.5 mg/kg/injection, schedule: Q01DX009 (ip), vehicle: saline): 158 % of control and 161 % of control
T/C (dose: 3.13 mg/kg/injection, schedule: Q01DX009 (oral), vehicle: saline): 86 % of control
T/C (dose: 5.0 mg/kg/injection, schedule: Q01DX009 (ip), vehicle: saline): 177 % of control and 187 % of control
T/C (dose: 6.25 mg/kg/injection, schedule: Q01DX009 (oral), vehicle: saline): 93 % of control
T/C (dose: 10.0 mg/kg/injection, schedule: Q01DX009 (ip), vehicle: saline): 229 % of control and 239 % of control
T/C (dose: 12.5 mg/kg/injection, schedule: Q01DX009 (oral), vehicle: saline): 86 % of control
T/C (dose: 25.0 mg/kg/injection, schedule: Q01DX009 (oral), vehicle: saline): 86 % of control

COc1cc(OC)cc(OC)c1
T/C (dose: 40.0 mg/kg/injection, schedule: Q01DX009 (ip), vehicle: Klucel (hydroxypropylcellulose) (HPC)): 108 % of control
T/C (dose: 80.0 mg/kg/injection, schedule: Q01DX009 (ip), vehicle: Klucel (hydroxypropylcellulose) (HPC)): 100 % of control
T/C (dose: 160.0 mg/kg/injection, schedule: Q01DX009 (ip), vehicle: Klucel (hydroxypropylcellulose) (HPC)): 106 % of control

CC(N)C(=O)NC(C)C(=O)O (stereo not given)
T/C (dose: 100.0 mg/kg/injection, schedule: Q01DX001 (ip), vehicle: saline): 98 % of control
T/C (dose: 200.0 mg/kg/injection, schedule: Q01DX001 (ip), vehicle: saline): 100 % of control
T/C (dose: 400.0 mg/kg/injection, schedule: Q01DX001 (ip), vehicle: saline): 99 % of control

C=CCSc1ncnc2c1ncn2C1OC(CO)C(O)C1O (stereo not given)
T/C [4]: 113 % of control

CCOC(=O)c1c/c(=C(\C)O)c(=O)n2c1nc1ccccc12
T/C [8]: 100 % of control
T/C [9]: 87 % of control
T/C [10]: 103 % of control

O=C(O)c1ccccc1O.O=C(O)c1ccccc1O.[O]=[V]
T/C (dose: 8.0 mg/kg/injection, schedule: Q01DX010 (ip), vehicle: carboxymethylcellulose (CMC)): 90 % of control
T/C (dose: 16.0 mg/kg/injection, schedule: Q01DX010 (ip), vehicle: carboxymethylcellulose (CMC)): 100 % of control

Cc1ccc(SS(=O)(=O)c2ccc(C)cc2)cc1
T/C (dose: 25.0 mg/kg/injection, schedule: Q01DX009 (ip), vehicle: saline sonified): 108 % of control
T/C (dose: 50.0 mg/kg/injection, schedule: Q01DX009 (ip), vehicle: saline sonified): 117 % of control
T/C (dose: 100.0 mg/kg/injection, schedule: Q01DX009 (ip), vehicle: saline sonified): 117 % of control

CC(O)C(C)(O)C(=O)O (stereo not given)
T/C [6]: 103 % of control
T/C (dose: 100.0 mg/kg/injection, schedule: Q01DX009 (ip), vehicle: saline): 117 % of control
T/C [11]: 101 % of control
T/C (dose: 200.0 mg/kg/injection, schedule: Q01DX009 (ip), vehicle: saline): 91 % of control
T/C (dose: 200.0 mg/kg/injection, schedule: Q04DX003 (ip), vehicle: saline): 95 % of control
T/C (dose: 300.0 mg/kg/injection, schedule: Q01DX009 (ip), vehicle: saline): 99 % of control

CC(=O)NS(=O)(=O)c1ccc(NC(=O)c2ccccc2C(=O)O)cc1
T/C [7]: 100 % of control
T/C [1]: 100 % of control
T/C [2]: 100 % of control

CC(C)(C)SC(=O)C[Si](C)(C)C
T/C [1]: 113 % of control
T/C [2]: 123 % of control

NNCc1c(C(=O)O)oc2ccccc12
T/C [3]: 99 % of control
T/C [4]: 100 % of control

NNC(=O)c1ccc(Cl)cc1Nc1ccc(F)cc1
T/C (dose: 50.0 mg/kg/injection, schedule: Q04DX003 (ip), vehicle: saline): 104 % of control
T/C [11]: 100 % of control
